Target: IN05 HA trimer
Format: binding, influenza A/Indonesia/5/2005 (H5 subtype)

Question: How did the “KD,MST” value turn out when α2,6-linked sialyl lactosamine [6-SLN] was run?
Answer: The value was “no detectable binding”.

Reference: publication PMC9367001 (Journal of Chemical Theory and Computation, 2022)
